# Literature values as cited in patent US20200300859A1, “MODULATING BIOMARKERS TO INCREASE TUMOR IMMUNITY AND IMPROVE THE EFFICACY OF CANCER IMMUNOTHERAPY” (Dana-Farber Cancer Institute, Inc., priority 2017, published 2020).
# Test system: osmotic nephrosis
# Details: in vivo
smiles,measurement,value
"CN1C(=O)C(Cc2c[nH]c3ccccc23)NC1=S (stereo not shown) [Necrostatin-1, 5-(1H-Indol-3-ylmethyl)-3-methyl-2-thioxo-4-imidazolidinone]",osmotic nephrosis,prevents
